Measured values: ChEMBL document CHEMBL5143608, “Peptide-based long-acting co-agonists of GLP-1 and cholecystokinin 1 receptors as novel anti-diabesity agents” (Eur J Med Chem, 2022)
The source made the active and inactive calls. The rule behind the calls is not given here.

What was measured:
Mus musculus [1] = experiment: Anti-diabesity activity against db/db mouse assessed as increase in islet number at 25 nmol/kg, sc administered every 2 days for 3 weeks by H and E staining based analysis; format: functional, organism-based; conditions: time 21.0 day
Mus musculus [2] = experiment: Anti-diabesity activity against db/db mouse assessed as reduction in HbA1c level at 25 nmol/kg, sc administered every 2 days for 6 weeks followed by saline treatment for 6 weeks and measured during first 6 weeks; format: functional, organism-based
[3] = Renal toxicity in db/db mouse assessed as blood urea nitrogen level in serum at 25 nmol/kg, sc administered every 2 days for 12 weeks; format: organism-based; conditions: in vivo, 2016 h
Mus musculus [4] = experiment: Anti-diabesity activity against db/db mouse assessed as reduction in fasting blood glucose level at 25 nmol/kg, sc administered every 2 days for 6 weeks followed by saline treatment for 6 weeks and measured during first 6 weeks; format: functional, organism-based
[5] = Hepatotoxicity in DIO C57BL/6 mouse assessed as aspartate aminotransferase level in plasma at 100 nmol/kg, sc administered once daily for 7 days; format: toxicity, organism-based; conditions: in vivo, 168 h, time 7 day
[6] = Renal toxicity in db/db mouse assessed as creatinine level in serum at 25 nmol/kg, sc administered every 2 days for 12 weeks; format: organism-based; conditions: in vivo, 2016 h
Mus musculus [7] = experiment: Anti-diabesity activity against DIO C57BL/6 mouse assessed as reduction in body weight at 25 nmol/kg, sc administered every 2 days for 3 weeks; format: functional; conditions: C57BL/6, 504 h, time 21 day
Rattus norvegicus = experiment: Anorectic activity in Sprague-Dawley rat assessed as reduction in food intake at 25 nmol/kg,ip measured after 24 hrs; format: functional
Mus musculus [8] = experiment: Anti-diabesity activity against DIO C57BL/6 mouse assessed as decrease in fat mass at 25 nmol/kg, sc administered every 2 days for 3 weeks; format: functional, organism-based; conditions: time 21.0 day
[9] = Half life in Sprague-Dawley rat at 25 nmol/kg, sc by LC-MS/MS analysis; format: ADME, organism-based; conditions: in vivo
[10] = Pancreatic insult activity in db/db mouse assessed as increase in lipase level in plasma at 100 nmol/kg, sc administered once daily for 7 days; format: toxicity, organism-based; conditions: in vivo, 168 h, time 7 day
[11] = Hepatotoxicity in DIO C57BL/6 mouse assessed as aspartate aminotransferase level in serum at 25 nmol/kg, sc administered every 2 days for 3 weeks; format: toxicity, organism-based; conditions: in vivo, 504 h, time 21 day
[12] = Renal toxicity in DIO C57BL/6 mouse assessed as creatinine level in serum at 100 nmol/kg, sc administered once daily for 7 days; format: organism-based; conditions: in vivo, 168 h, time 7 day
Mus musculus [13] = experiment: Insulinotropic activity in db/db mouse assessed as elevation of plasma insulin level at 25 nmol/kg, ip administered 30 min before oral glucose administration and measured upto 60 mins by ELISA; format: functional, organism-based; conditions: time <= 90.0 min
Mus musculus [14] = experiment: Anti-diabesity activity in DIO C57BL/6 mouse assessed as reduction in body weight at 10 nmol/kg, sc administered every 2 days for 10 days; format: functional; conditions: C57BL/6, 240 h, time 10 day
Mus musculus [15] = experiment: Anti-diabesity activity against db/db mouse assessed as reduction in HbA1c level at 25 nmol/kg, sc administered every 2 days for 12 weeks; format: functional, organism-based
Mus musculus [16] = experiment: Anti-diabesity activity against DIO C57BL/6 mouse assessed as reduction in cholesterol level in serum at 25 nmol/kg, sc administered every 2 days for 3 weeks; format: functional, organism-based; conditions: time 21.0 day
Mus musculus [17] = experiment: Anti-diabesity activity against db/db mouse assessed as increase in insulin sensitivity by measuring reduction in plasma insulin level at 25 nmol/kg, sc administered every 2 days for 12 weeks by ELISA; format: functional, organism-based
Mus musculus [18] = experiment: Hypoglycemic activity in sc dosed non-fasted db/db mouse assessed as reduction in blood glucose level measured upto 48 hrs; format: functional, organism-based; conditions: dose 10-100 nmol/kg, DDE = dose-dependent effect
Mus musculus [19] = experiment: Hypoglycemic activity in db/db mouse assessed as improvement in glucose tolerance at 25 nmol/kg, ip administered 30 min before oral glucose administration and measured upto 120 mins by OGTT; format: functional, organism-based
[20] = Renal toxicity in db/db mouse assessed as creatinine level in serum at 100 nmol/kg, sc administered once daily for 7 days; format: organism-based; conditions: in vivo, 168 h, time 7 day
Mus musculus [21] = experiment: Anti-diabesity activity against db/db mouse assessed as reduction in fasting blood glucose level at 25 nmol/kg, sc administered every 2 days for 6 weeks followed by saline treatment for 6 weeks and measured during second 6 weeks; format: functional, organism-based
Mus musculus [22] = experiment: Anti-diabesity activity against db/db mouse assessed as reduction in body weight at 25 nmol/kg, sc administered every 2 days for 3 weeks; format: functional, organism-based; conditions: time 21.0 day
[23] = Pancreatic insult activity in db/db mouse assessed as increase in amylase level in plasma at 100 nmol/kg, sc administered once daily for 7 days; format: toxicity, organism-based; conditions: in vivo, 168 h, time 7 day
Mus musculus [24] = experiment: Anti-diabesity activity against DIO C57BL/6 mouse assessed as improvement in glucose tolerance at 25 nmol/kg, sc administered every 2 days for 3 weeks by OGTT; format: functional, organism-based; conditions: time 21.0 day
Mus musculus [25] = experiment: Anti-diabesity activity against DIO C57BL/6 mouse assessed as reduction in cumulative food intake at 25 nmol/kg, sc administered every 2 days for 3 weeks; format: functional, organism-based; conditions: time 21.0 day
Mus musculus [26] = experiment: Anti-diabesity activity in DIO C57BL/6 mouse assessed as reduction in body weight at 100 nmol/kg, sc administered every 2 days for 10 days; format: functional; conditions: C57BL/6, 240 h, time 10 day
[27] = Renal toxicity in DIO C57BL/6 mouse assessed as creatinine level in serum at 25 nmol/kg, sc administered every 2 days for 3 weeks; format: organism-based; conditions: in vivo, 504 h, time 21 day
Mus musculus [28] = experiment: Anti-diabesity activity against db/db mouse assessed as reduction in fasted blood glucose level at 25 nmol/kg, sc administered every 2 days for 3 weeks; format: functional, organism-based; conditions: time 21.0 day
[29] = Pancreatic insult activity in DIO C57BL/6 mouse assessed as amylase level in serum at 25 nmol/kg, sc administered every 2 days for 3 weeks; format: toxicity, organism-based; conditions: in vivo, 504 h, time 21 day
Mus musculus [30] = experiment: Anti-diabesity activity against db/db mouse assessed as improvement in glucose tolerance at 25 nmol/kg, sc administered every 2 days for 12 weeks by OGTT; format: functional, organism-based
Mus musculus [31] = experiment: Anti-diabesity activity against DIO C57BL/6 mouse assessed as reduction in leptin level in plasma at 25 nmol/kg, sc administered every 2 days for 3 weeks by ELISA; format: functional, organism-based; conditions: time 21.0 day
[32] = Hepatotoxicity in db/db mouse assessed as alanine aminotransferase level in plasma at 100 nmol/kg, sc administered once daily for 7 days; format: toxicity, organism-based; conditions: in vivo, 168 h, time 7 day
Mus musculus [33] = experiment: Anti-diabesity activity in db/db mouse assessed as reduction in body weight at 100 nmol/kg, sc administered once daily for 7 days; format: functional, organism-based; conditions: time 7.0 day
Mus musculus [34] = experiment: Anti-diabesity activity against db/db mouse assessed as reduction in HbA1c level at 25 nmol/kg, sc administered every 2 days for 6 weeks followed by saline treatment for 6 weeks and measured during second 6 weeks; format: functional, organism-based
Mus musculus [35] = experiment: Anti-diabesity activity against db/db mouse assessed as enhanced islets insulin content at 25 nmol/kg, sc administered every 2 days for 3 weeks by immunohistochemistry staining; format: functional, organism-based; conditions: time 21.0 day
Mus musculus [36] = experiment: Anorectic activity in ICR mouse assessed as decrease in food intake at 25 nmol/kg, ip and measured after 24 hrs; format: functional, organism-based
[37] = Renal toxicity in DIO C57BL/6 mouse assessed as blood urea nitrogen level at 25 nmol/kg, sc administered every 2 days for 3 weeks; format: organism-based; conditions: in vivo, 504 h, time 21 day
[38] = Half life in Sprague-Dawley rat at 25 nmol/kg, iv by LC-MS/MS analysis; format: ADME, organism-based; conditions: in vivo

Row | SMILES | Activity (Mus musculus [1]) | Activity (Mus musculus [2]) | Activity [3] | Activity (Mus musculus [4]) | Activity [5] | Activity [6] | inhibition in vivo at 0.025 µmol/kg (Mus musculus [7]) [%] | inhibition in vivo at 0.025 µmol/kg (Rattus norvegicus) [%] | Activity (Mus musculus [8]) | half-life [9] [h] | Activity [10] | Activity [11] | Activity [12] | Activity (Mus musculus [13]) | inhibition in vivo at 0.01 µmol/kg (Mus musculus [14]) [%] | Activity (Mus musculus [15]) | Activity (Mus musculus [16]) | Activity (Mus musculus [17]) | Activity (Mus musculus [18]) | Activity (Mus musculus [19]) | also measured
1 | CCCC[C@H](NC(=O)[C@H](Cc1ccc(CS(=O)(=O)O)cc1)NC(=O)[C@H](CC(=O)O)NC(=O)COCCOCCNC(=O)COCCOCCNC(=O)[C@H](CCCNC(=N)N)NC(=O)CNC(=O)[C@H](CCCCN)NC(=O)[C@@H](NC(=O)[C@H](CC(C)C)NC(=O)[C@H](Cc1c[nH]c2ccccc12)NC(=O)[C@H](C)NC(=O)[C@@H](NC(=O)[C@H](Cc1ccccc1)NC(=O)[C@H](CCC(=O)O)NC(=O)[C@H](CCCCNC(=O)COCCOCCNC(=O)COCCOCCNC(=O)CC[C@H](NC(=O)CCCCCCCCCCCCCCCCC(=O)O)C(=O)O)NC(=O)[C@H](C)NC(=O)[C@H](C)NC(=O)[C@H](CCC(N)=O)NC(=O)CNC(=O)[C@H](CCC(=O)O)NC(=O)[C@H](CC(C)C)NC(=O)[C@H](Cc1ccc(O)cc1)NC(=O)[C@H](CO)NC(=O)[C@H](CO)NC(=O)[C@@H](NC(=O)[C@H](CC(=O)O)NC(=O)[C@H](CO)NC(=O)[C@@H](NC(=O)[C@H](Cc1ccccc1)NC(=O)[C@@H](NC(=O)CNC(=O)[C@H](CCC(=O)O)NC(=O)[C@H](C)NC(=O)[C@@H](N)Cc1cnc[nH]1)[C@@H](C)O)[C@@H](C)O)C(C)C)[C@@H](C)CC)C(C)C)C(=O)NCC(=O)N[C@@H](Cc1c[nH]c2ccccc12)C(=O)N[C@@H](CCCC)C(=O)N(C)[C@H](CC(=O)O)C(=O)N(C)[C@@H](Cc1ccccc1)C(N)=O | Active | Active | Non-Toxic | Active | Non-Toxic | Non-Toxic | 27.3 | 28 | Active | 9.2 | Non-Toxic | Non-Toxic | Non-Toxic | Active | 14.5 | Active | Active | Active | Dde | Active | Activity [20]: Non-Toxic; Activity (Mus musculus [21]): Active; Activity (Mus musculus [22]): Active; Activity [23]: Non-Toxic; Activity (Mus musculus [24]): Active; Activity (Mus musculus [25]): Active; inhibition in vivo at 0.1 µmol/kg (Mus musculus [26]): 27.1%; Activity [27]: Non-Toxic; Activity (Mus musculus [28]): Active; Activity [29]: Non-Toxic; Activity (Mus musculus [30]): Active; Activity (Mus musculus [31]): Active; Activity [32]: Non-Toxic; Activity (Mus musculus [33]): Active; Activity (Mus musculus [34]): Active; Activity (Mus musculus [35]): Active; Activity (Mus musculus [36]): Active; Activity [37]: Non-Toxic; half-life [38]: 6.3 h
2 | CCCC[C@H](NC(=O)[C@H](Cc1ccc(CS(=O)(=O)O)cc1)NC(=O)[C@H](CC(=O)O)NC(=O)COCCOCCNC(=O)COCCOCCNC(=O)[C@H](CCCCN)NC(=O)CNC(=O)[C@H](CCCCN)NC(=O)[C@@H](NC(=O)[C@H](CC(C)C)NC(=O)[C@H](Cc1c[nH]c2ccccc12)NC(=O)[C@H](CCC(=O)O)NC(=O)[C@@H](NC(=O)[C@H](Cc1ccccc1)NC(=O)[C@H](CCC(=O)O)NC(=O)[C@H](CCCCNC(=O)COCCOCCNC(=O)COCCOCCNC(=O)CC[C@H](NC(=O)CCCCCCCCCCCCCCCCC(=O)O)C(=O)O)NC(=O)[C@H](C)NC(=O)[C@H](C)NC(=O)[C@H](CCC(=O)O)NC(=O)[C@H](CCC(=O)O)NC(=O)[C@H](CCC(=O)O)NC(=O)[C@H](CC(C)C)NC(=O)[C@@H](NC(=O)[C@H](CCC(=O)O)NC(=O)[C@@H](NC(=O)[C@@H](NC(=O)[C@H](CC(=O)O)NC(=O)[C@H](CC(N)=O)NC(=O)[C@@H](NC(=O)[C@H](Cc1ccc(O)cc1)NC(=O)[C@@H](NC(=O)CNC(=O)[C@H](CCC(=O)O)NC(=O)C(C)(C)NC(=O)[C@@H](N)Cc1cnc[nH]1)[C@@H](C)O)[C@@H](C)O)C(C)C)[C@@H](C)O)[C@@H](C)O)[C@@H](C)CC)[C@@H](C)CC)C(=O)NCC(=O)N[C@@H](Cc1c[nH]c2ccccc12)C(=O)N[C@@H](CCCC)C(=O)N(C)[C@H](CC(=O)O)C(=O)N(C)[C@@H](Cc1ccccc1)C(N)=O | Active | Active | Non-Toxic | Active | Non-Toxic | Non-Toxic | 29.8 | 33 | Active | 16.8 | Non-Toxic | Non-Toxic | Non-Toxic | Active | 16.2 | Active | Active | Active | Dde | Active | Activity [20]: Non-Toxic; Activity (Mus musculus [21]): Active; Activity (Mus musculus [22]): Active; Activity [23]: Non-Toxic; Activity (Mus musculus [24]): Active; Activity (Mus musculus [25]): Active; inhibition in vivo at 0.1 µmol/kg (Mus musculus [26]): 30.6%; Activity [27]: Non-Toxic; Activity (Mus musculus [28]): Active; Activity [29]: Non-Toxic; Activity (Mus musculus [30]): Active; Activity (Mus musculus [31]): Active; Activity [32]: Non-Toxic; Activity (Mus musculus [33]): Active; Activity (Mus musculus [34]): Active; Activity (Mus musculus [35]): Active; Activity (Mus musculus [36]): Active; Activity [37]: Non-Toxic; half-life [38]: 9.1 h
